Measured values published in ChEMBL document CHEMBL1201862, “PubChem BioAssay data set” (2004).
The source made the active and inactive calls.

Columns and labels:
Vero = Vero cell cytotoxicity, cytotoxicity control for flavivirus capping enzyme inhibitors (AID 588742); type: functional; settings: Chlorocebus sabaeus
[1] = HepG2 cell cytotoxicity, dose response, cytotoxicity control, plate reader, cherry-pick, antagonist series (AID 743416); type: functional, cell-based
[2] = MC4R antagonists, dose response, counter-screen for LGR2 antagonist project, cell-based, plate reader, cherry pick (AID 743444); type: functional;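 further: transfected HEK 293 cells stimulated with alpha-MSH peptide; potency of inhibitors of the alpha-MSH evoked signal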
HEK293 = assay: inhibitors of LMP1-driven NF-kB reporter, dose response, cell-based, HEK293, luciferase, cherry-pick (AID 588343); type: functional; settings: Homo sapiens
[3] = target: T1, Polyadenylate-binding protein 1 (Homo sapiens, UniProt P11940); assay: PABP1 MLLE–PAM2 binding inhibitor potency, dose response, biochemical, fluorescence polarization, FITC-PAM2 peptide (AID 602259); type: functional; settings: read-out: IC50_Mean
[4] = LGR2 antagonists, dose response, cell-based, HEK293, CRE-luciferase reporter, cherry pick, set 2 (AID 743343); type: functional;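 further: transfected cells were stimulated with diluted bursicon conditioned medium after compound addition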
[5] = target: T1, Polyadenylate-binding protein 1; assay: PABP1 MLLE–PAM2 interaction inhibitors, dose response, miRNA deadenylation inhibitor project, biochemical, fluorescence polarization, Cy5-PAM2 peptide, secondary (AID 602260); type: functional; settings: read-out: IC50_Mean
BJ [6] = assay: cytotoxicity toward BJ-TERT-LT-ST fibroblasts, dose response, cell-based, RAS-independent, luminescence (AID 1935); type: functional; settings: Homo sapiens;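 further: BJ fibroblasts immortalized with TERT plus LT and ST oncogenes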
BJ [7] = assay: cytotoxicity toward BJ-TERT fibroblasts, dose response, cell-based, RAS-independent, luminescence (AID 1933); type: functional; settings: Homo sapiens
[8] = inhibitors of firefly luciferase expression or activity, dose response, H4 neuroglioma cells, luminescence (AID 1990); type: functional, cell-based
BJ [9] = assay: cells; type: functional, cell-based; settings: Homo sapiens
cells [10] = type: functional, cell-based
[11] = inhibitors of SNCA 5'UTR-driven reporter translation, confirmation, H4 neuroglioma cells, luminescence (AID 1988); type: functional, cell-based
cells [12] = type: functional, cell-based; remark: listed apart in the source
INS1 = assay: beta cell apoptosis inhibitors, cytokine rescue, dose response, luminescence, retest (AID 449756); type: functional, cell-based; settings: Rattus norvegicus;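 further: cell death triggered by IL-1 beta plus TNF-alpha plus IFN-gamma mixture; protective hits raise ATP signal compared with cytokine alone wells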
[13] = cytotoxicity toward DRD oncogenic fibroblasts, dose response, cell-based, non-viral oncogenic, luminescence (AID 1934); type: functional; settings: Homo sapiens
[14] = Luminescence Cell-Based Dose Response HTS to Identify Inhibitors of 5'UTR Stem-Loop Driven Prion Protein mRNA Translation in H4 Neuroglioblastoma Cells. [Related pubchem assays: 1827 (Project Summary), 1813 (Primary HTS)]; type: functional
BJ [15] = assay: cytotoxicity toward Ras-transformed BJeLR fibroblasts, dose response, cell-based, alamar blue fluorescence, cherrypicked samples (AID 2631); type: functional; settings: Homo sapiens;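 further: confirmatory dose-response assay in RAS-dependent BJ fibroblasts engineered with TERT, LT and ST, with cytotoxicity read by fluorescence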
[16] = target: T2, Endoribonuclease toxin MazF (Escherichia coli K-12, UniProt P0AE70); assay: fluorescent RNA oligo signal without MazF, dose response, counter-screen for MazEF activator project, biochemical, fluorescence, single-stranded RNase substrate (AID 588502); type: functional
T2 sequence (P0AE70 whole entry): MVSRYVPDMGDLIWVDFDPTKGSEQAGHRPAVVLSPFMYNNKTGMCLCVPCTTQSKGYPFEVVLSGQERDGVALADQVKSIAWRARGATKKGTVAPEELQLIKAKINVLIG

[17] = target: T2, Endoribonuclease toxin MazF; assay: MazF toxin RNase activators, dose response, biochemical, fluorescence, single-stranded RNA substrate, uHTS hits (AID 588481); type: functional
[18] = target: Photoreceptor-specific nuclear receptor (Homo sapiens, UniProt Q9Y5X4); type: functional, cell-based;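 further: CHO-S cells with Gal4-NCOR and VP16-NR2E3 two-hybrid luciferase reporter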
Chain of Photoreceptor-specific nuclear receptor (Q9Y5X4 whole entry, the tested form may be a part): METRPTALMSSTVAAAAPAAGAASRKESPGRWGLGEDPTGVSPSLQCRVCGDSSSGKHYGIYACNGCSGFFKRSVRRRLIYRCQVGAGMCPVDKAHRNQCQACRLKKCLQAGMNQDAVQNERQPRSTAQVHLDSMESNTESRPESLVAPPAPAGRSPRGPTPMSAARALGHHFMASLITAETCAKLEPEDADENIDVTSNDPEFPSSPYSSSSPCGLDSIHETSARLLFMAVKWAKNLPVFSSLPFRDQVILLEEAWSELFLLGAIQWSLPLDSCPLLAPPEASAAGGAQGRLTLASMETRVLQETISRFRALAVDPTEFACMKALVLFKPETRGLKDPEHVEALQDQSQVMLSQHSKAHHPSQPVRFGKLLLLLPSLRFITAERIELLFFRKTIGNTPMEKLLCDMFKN

T1 sequence (P11940 whole entry): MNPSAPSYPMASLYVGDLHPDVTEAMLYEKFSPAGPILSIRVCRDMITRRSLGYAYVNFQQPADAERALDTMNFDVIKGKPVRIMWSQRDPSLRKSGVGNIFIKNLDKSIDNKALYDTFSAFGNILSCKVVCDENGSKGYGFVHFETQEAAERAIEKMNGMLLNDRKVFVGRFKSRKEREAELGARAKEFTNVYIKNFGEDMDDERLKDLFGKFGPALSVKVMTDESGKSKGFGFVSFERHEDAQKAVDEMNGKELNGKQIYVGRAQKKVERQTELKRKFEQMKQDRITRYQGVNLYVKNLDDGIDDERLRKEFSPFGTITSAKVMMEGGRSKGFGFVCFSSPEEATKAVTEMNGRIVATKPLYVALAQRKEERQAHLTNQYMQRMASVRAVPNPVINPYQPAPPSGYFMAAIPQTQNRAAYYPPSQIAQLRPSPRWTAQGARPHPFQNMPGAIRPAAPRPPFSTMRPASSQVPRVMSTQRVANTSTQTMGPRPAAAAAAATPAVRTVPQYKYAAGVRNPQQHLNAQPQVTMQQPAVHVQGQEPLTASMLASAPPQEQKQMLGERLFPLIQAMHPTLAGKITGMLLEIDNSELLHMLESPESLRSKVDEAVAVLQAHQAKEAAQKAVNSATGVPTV

## CCn1c(=O)c(C(=O)CN2CCc3ccccc32)c(N)n(Cc2ccccc2)c1=O
Vero
  CC50: > 40 µM (active)

## O=C(CN1C(=O)c2ccccc2S1(=O)=O)Nc1ncc(Cl)cc1Cl
[1]
  AC50: > 52 µM (inactive)
[2]
  AC50: 9.06 µM (active)
HEK293
  AC50: 3.85 µM (active)
[3]
  IC50: 27.3 µM (inactive)
[4]
  AC50: 8.67 µM (active)
[5]
  IC50: > 66 µM (inactive)

## C/C(=N\Nc1nc2ccccc2[nH]1)c1ccccn1
BJ [6]
  EC50: 1.38 µM (inconclusive)
BJ [7]
  EC50: 0.672 µM (active)
[8]
  EC50: 0.306 µM (active)
BJ [9]
  EC50: 4.7 µM (active)
Cells [10]
  EC50: 6.03 µM (active)
[11]
  EC50: 0.107 µM (active)
Cells [12]
  EC50: 13.8 µM (active)
INS1
  AC50: < 0.195 µM (active)
[13]
  EC50: 2.24 µM (active)
[14]
  EC50: 0.154 µM (active)
BJ [15]
  EC50: < 0.104 µM (active)

## COc1ccc(NC(=O)CN(C)S(=O)(=O)c2ccccc2)c([N+](=O)[O-])c1
[16]
  EC50: > 99 µM (inactive)
[17]
  EC50: > 99 µM (inactive)

## COc1cccc(-c2cc(C(=O)N3CCc4ccccc4C3)[nH]n2)c1
[16]
  EC50: > 99 µM (inactive)
[17]
  EC50: > 99 µM (inactive)

## C=C(C(=O)c1ccccc1)C(NC(C)(C)C)c1ccccc1 (stereo not drawn)
[18]
  IC50: 2.01 µM (active)
